Test results: patent publication US20190010236A1, “METHODS AND COMPOSITIONS FOR DECTIN-2 STIMULATION AND CANCER IMMUNOTHERAPY” (The Board of Trustees of the Leland Stanford Junior …, priority 2015, published 2019)

Key:
PDAC cells = assay: High-mannose glycan display on kifunensine-treated tumor cells (concavalin A staining); format: cell-based; conditions: tumor cells treated with kifunensine for 3 days
Procedure: (§1) FIG. 5A-5D. Mannosidase inhibition with kifunensine induces high-mannose glycan display and increases tumor cell immunogenicity. (FIG. 5A-5C) PDAC cells were treated with kifunensine for 3 days prior to flow cytometric analysis (FIG. 5A) or coculture with TAM (FIG. 5B, FIG. 5C). (FIG. 5A) PDAC cells stained with the mannose-binding lectin, concavalin A. (FIG. 5B, FIG. 5C) Pretreated PDAC cells were labeled with CSFE and cocultured overnight with TAM to assess cytokine production (FIG. 5B) and tumor cell uptake (FIG. 5C) by Dectin-2-expressing TAM. In some experiments, TAM were treated with Dectin-2-blocking antibodies prior to coculture with PDAC cells (FIG. 5C). *, p<0.05 by Student's t-test. (FIG. 5D) Subcutaneous PDAC tumors from kifunensine-treated mice (i.p., q2d for 7 days) were analyzed by flow cytometry. CD8 T cells (CD8^+CD90^+) among total tumor-infiltrating immune cells are gated.

[1] = test system: tumor-associated myeloid cells (TAM cells); assay: Coculture of kifunensine-pretreated PDAC cells with TAM (cytokine production, tumor cell uptake); format: cell-based; conditions: kifunensine-pretreated PDAC cells cocultured overnight with TAM; Dectin-2-dependent
Procedure: as §1

subcutaneous PDAC tumors = assay: Kifunensine treatment of mice with subcutaneous PDAC tumors; format: in vivo; conditions: kifunensine i.p., q2d for 7 days
Procedure: as §1

s.c. CT26 tumors = assay: Mannan (i.v.) and/or GM-CSF (i.t.) in s.c. CT26 tumors; format: in vivo, mice; conditions: GM-CSF i.t. with mannan i.v.
Procedure: (§2) FIG. 4A-4D. GM-CSF induces Dectin-2 expression and sensitizes tumors to Dectin-2 stimuli. (FIG. 4A-4C) Murine (FIG. 4A, FIG. 4B) and human (FIG. 4C) monocytes were cultured for 24 hr in media supplemented or not with GM-CSF (50 ng/mL) prior to flow cytometric analysis of Dectin-2 expression (FIG. 4A, FIG. 4C) or stimulation with furfurman and analysis of TNFα production (FIG. 4B). […] (FIG. 4D) Mice bearing s.c. CT26 tumors were treated with mannan (i.v.) and/or GM-CSF (i.t.) starting on day 6 post-tumor implantation.
(§3) (FIG. 4A-4C) Murine (FIG. 4A, FIG. 4B) and human (FIG. 4C) monocytes were cultured for 24 hr in media supplemented or not with GM-CSF (50 ng/mL) prior to flow cytometric analysis of Dectin-2 expression (FIG. 4A, FIG. 4C) or stimulation with furfurman and analysis of GM-CSF production. […] (FIG. 4D) Mice bearing s.c. CT26 tumors were treated with mannan (i.v.) and/or GM-CSF (i.t.) starting on day 6 post-tumor implantation.

human monocytes = assay: Flow cytometric analysis of Dectin-2 expression after GM-CSF culture; format: cell-based; conditions: 24 hr, GM-CSF 50 ng/mL
Procedure: as §2, §3

murine monocytes = assay: as above; format: cell-based; conditions: 24 hr, GM-CSF 50 ng/mL
Procedure: as §2, §3

Compound | high-mannose glycans on the cell surface (PDAC cells) | TAM activation by treated tumor cells (cytokine production, tumor cell uptake) [1] | T cell infiltration into tumors (subcutaneous PDAC tumors) | high-mannose glycan display by tumor cells in vivo (subcutaneous PDAC tumors) | sensitization of tumors to Dectin-2 stimuli (tumor volume) (s.c. CT26 tumors) | Dectin-2 expression (human monocytes) | Dectin-2 expression (murine monocytes)
O=C1N[C@@H]2[C@@H](O)[C@@H](O)[C@H](O)[C@@H](CO)N2C1=O [kifunensine] | sharp increase | inducing proinflammatory cytokine production and tumor cell uptake | led to T cell infiltration into tumors | increased high-mannose glycan display by tumor cells |  |  | 
GM-CSF: cytokine that induces Dectin-2 expression by myeloid cells |  |  |  |  | sensitized tumors to Dectin-2 stimuli | induced Dectin-2 expression | induced Dectin-2 expression
